Measurements as given in patent US20260365670A1, “EGFR INHIBITORS AND USES THEREOF” (DIZAL (JIANGSU) PHARMACEUTICAL CO., LTD., priority 2022, published 2026).
Like-named read-outs stand apart in the source and are kept apart here.

Tests used:
[1] = target: T1, EGFR (d746-750 C797S) (Homo sapiens, UniProt P00533, C797S/DEL746-750); experiment: Inhibition of EGFR (d746-750 C797S) biochemical enzymatic activity (HTRF); details: EGFR (d746-750 C797S), 1 mM ATP, 1 h at room temperature, read-out: IC50 @Del19-C797S
T1 construct: purchased signalchem
In short: (§1)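 For IC50 determination by four-parameter logistic fit, EDTA-quenched 1 h room-temperature reactions (1 mM ATP, 1 μM TK Substrate-biotin) were read by HTRF. The 665/615 nm emission ratio after 320 nm excitation served as the activity signal.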

[2] = target: T2, EGFR L858R (Homo sapiens, UniProt P00533, L858R); experiment: Inhibition of EGFR L858R biochemical enzymatic activity (HTRF); details: 1 mM ATP, 1 h at room temperature, read-out: IC50 @L858R
T2 construct: purchased Carna Bio
T2 sequence (P00533 25-1210 L858R): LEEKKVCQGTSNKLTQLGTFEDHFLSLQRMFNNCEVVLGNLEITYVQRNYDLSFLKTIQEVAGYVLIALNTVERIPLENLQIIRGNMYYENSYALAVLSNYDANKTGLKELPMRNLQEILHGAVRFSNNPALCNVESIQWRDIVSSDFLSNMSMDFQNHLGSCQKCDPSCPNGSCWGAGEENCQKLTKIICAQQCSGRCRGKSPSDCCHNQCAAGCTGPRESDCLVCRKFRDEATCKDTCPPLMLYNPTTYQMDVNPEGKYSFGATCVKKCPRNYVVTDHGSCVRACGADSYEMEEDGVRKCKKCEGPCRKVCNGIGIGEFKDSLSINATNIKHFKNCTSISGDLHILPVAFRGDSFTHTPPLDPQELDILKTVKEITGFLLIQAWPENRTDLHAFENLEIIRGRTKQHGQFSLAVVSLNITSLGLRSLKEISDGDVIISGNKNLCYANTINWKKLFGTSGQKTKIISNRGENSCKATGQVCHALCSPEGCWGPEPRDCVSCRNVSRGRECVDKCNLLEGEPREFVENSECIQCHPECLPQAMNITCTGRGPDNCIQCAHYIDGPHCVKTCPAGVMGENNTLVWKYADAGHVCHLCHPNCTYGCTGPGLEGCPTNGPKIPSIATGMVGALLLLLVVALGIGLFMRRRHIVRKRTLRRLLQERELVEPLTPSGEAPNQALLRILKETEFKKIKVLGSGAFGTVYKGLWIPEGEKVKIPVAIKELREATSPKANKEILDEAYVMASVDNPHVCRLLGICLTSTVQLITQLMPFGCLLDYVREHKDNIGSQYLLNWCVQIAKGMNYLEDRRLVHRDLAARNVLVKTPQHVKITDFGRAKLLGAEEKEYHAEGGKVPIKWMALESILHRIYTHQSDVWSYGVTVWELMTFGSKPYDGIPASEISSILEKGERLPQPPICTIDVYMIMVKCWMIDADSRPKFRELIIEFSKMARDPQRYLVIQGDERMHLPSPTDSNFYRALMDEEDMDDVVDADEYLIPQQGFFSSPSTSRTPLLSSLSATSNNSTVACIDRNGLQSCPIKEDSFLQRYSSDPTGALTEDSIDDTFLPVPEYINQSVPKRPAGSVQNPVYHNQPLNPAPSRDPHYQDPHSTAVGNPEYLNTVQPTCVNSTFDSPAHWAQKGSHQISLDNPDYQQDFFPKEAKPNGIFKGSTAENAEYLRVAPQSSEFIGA
In short: as §1

[3] = target: T3, EGFR Exon19Del (Homo sapiens, UniProt P00533, DEL746-750); experiment: Inhibition of EGFR Exon19Del biochemical enzymatic activity (HTRF); details: EGFR Exon19Del, 1 mM ATP, 1 h at room temperature, read-out: IC50 @Del19
T3 construct: purchased Carna Bio
In short: as §1

[4] = tested on: A-431; experiment: Cell proliferation assay, A-431 cells (GI50, Table 6); assay type: cell-based; details: Homo sapiens, A-431, A-431 cells
[5] = target: T4, EGFR (C797S L858R) (Homo sapiens, UniProt P00533, C797S/L858R); experiment: Inhibition of EGFR (C797S L858R) biochemical enzymatic activity (HTRF); details: EGFR (C797S L858R), 1 mM ATP, 1 h at room temperature, read-out: IC50 @L858-C797S
T4 construct: purchased signalchem
T4 sequence (P00533 25-1210 C797S/L858R): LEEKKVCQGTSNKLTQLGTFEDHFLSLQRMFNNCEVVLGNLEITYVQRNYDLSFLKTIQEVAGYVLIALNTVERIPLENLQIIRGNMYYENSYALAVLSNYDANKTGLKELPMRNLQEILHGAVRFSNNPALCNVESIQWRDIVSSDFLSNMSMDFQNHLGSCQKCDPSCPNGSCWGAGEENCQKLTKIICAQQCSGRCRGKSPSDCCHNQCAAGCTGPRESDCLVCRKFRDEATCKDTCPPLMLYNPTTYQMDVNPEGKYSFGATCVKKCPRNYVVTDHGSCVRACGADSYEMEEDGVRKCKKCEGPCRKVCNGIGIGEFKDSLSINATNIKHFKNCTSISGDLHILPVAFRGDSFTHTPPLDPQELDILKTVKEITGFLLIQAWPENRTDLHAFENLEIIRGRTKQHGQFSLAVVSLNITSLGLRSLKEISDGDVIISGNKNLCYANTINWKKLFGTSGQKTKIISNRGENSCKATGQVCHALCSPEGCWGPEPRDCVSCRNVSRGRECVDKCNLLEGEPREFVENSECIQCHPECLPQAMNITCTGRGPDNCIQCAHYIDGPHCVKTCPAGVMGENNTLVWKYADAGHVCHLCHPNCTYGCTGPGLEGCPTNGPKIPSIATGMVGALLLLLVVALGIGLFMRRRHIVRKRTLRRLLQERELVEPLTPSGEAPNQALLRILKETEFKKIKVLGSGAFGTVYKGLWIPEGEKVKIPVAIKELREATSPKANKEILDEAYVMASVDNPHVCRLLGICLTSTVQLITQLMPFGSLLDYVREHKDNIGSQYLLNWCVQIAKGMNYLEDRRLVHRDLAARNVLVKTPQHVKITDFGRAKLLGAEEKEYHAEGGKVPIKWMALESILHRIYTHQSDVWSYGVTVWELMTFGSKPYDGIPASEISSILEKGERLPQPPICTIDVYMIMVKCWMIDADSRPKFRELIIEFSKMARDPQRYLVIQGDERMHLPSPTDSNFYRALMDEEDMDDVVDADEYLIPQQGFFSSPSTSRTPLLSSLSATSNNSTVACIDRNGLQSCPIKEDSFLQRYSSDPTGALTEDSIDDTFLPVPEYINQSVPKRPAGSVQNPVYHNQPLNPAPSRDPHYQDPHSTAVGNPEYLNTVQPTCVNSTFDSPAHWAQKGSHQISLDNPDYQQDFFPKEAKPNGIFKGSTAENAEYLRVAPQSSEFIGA
In short: as §1

[6] = target: T5, EGFR wild type (Homo sapiens, UniProt P00533); experiment: Inhibition of EGFR wild type biochemical enzymatic activity (HTRF); details: EGFR wild type, 1 mM ATP, 1 h at room temperature, read-out: IC50 @WT
T5 construct: purchased Carna Bio
T5 sequence (P00533 25-1210): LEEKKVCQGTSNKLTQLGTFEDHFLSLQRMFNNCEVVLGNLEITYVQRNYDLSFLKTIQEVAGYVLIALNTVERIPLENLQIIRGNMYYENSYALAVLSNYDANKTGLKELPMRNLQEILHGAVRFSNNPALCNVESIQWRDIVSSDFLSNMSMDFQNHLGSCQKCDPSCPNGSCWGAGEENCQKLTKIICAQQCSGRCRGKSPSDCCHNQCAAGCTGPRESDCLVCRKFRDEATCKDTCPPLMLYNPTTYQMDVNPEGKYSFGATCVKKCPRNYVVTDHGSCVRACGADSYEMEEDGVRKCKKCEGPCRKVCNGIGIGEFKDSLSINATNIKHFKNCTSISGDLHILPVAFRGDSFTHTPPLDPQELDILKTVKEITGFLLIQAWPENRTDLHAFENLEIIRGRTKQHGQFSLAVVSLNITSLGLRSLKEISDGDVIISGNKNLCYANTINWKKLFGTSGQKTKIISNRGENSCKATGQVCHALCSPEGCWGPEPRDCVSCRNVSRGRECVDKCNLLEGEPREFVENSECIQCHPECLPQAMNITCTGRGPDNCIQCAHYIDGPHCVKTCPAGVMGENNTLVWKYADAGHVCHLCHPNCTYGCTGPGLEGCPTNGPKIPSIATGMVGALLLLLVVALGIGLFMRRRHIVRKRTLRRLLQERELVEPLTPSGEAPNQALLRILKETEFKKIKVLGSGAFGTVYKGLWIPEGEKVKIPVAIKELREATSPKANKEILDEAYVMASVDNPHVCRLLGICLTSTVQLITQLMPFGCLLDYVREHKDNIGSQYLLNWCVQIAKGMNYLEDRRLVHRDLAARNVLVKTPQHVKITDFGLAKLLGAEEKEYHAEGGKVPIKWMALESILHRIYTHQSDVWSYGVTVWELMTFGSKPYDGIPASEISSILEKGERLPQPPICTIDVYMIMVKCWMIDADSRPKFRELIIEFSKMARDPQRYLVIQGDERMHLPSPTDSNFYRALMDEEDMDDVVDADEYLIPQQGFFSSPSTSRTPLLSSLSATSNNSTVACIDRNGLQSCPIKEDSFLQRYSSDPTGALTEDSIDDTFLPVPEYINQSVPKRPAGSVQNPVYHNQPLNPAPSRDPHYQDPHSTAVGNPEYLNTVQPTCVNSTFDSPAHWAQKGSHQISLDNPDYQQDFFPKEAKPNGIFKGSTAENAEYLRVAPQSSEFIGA
In short: as §1

[7] = target: T6, EGFR[T790M/C797S/d746-750] (Homo sapiens, UniProt P00533, C797S/DEL746-750/T790M); experiment: Inhibition of EGFR[T790M/C797S/d746-750] biochemical enzymatic activity (HTRF); details: EGFR[T790M/C797S/d746-750], 1 mM ATP, 1 h at room temperature, read-out: IC50 @T790M - C797S - Del19
T6 construct: purchased Carna Bio
T6 sequence (P00533 with tags, fused parts or gaps DEL746-750/T790M/C797S limits assumed): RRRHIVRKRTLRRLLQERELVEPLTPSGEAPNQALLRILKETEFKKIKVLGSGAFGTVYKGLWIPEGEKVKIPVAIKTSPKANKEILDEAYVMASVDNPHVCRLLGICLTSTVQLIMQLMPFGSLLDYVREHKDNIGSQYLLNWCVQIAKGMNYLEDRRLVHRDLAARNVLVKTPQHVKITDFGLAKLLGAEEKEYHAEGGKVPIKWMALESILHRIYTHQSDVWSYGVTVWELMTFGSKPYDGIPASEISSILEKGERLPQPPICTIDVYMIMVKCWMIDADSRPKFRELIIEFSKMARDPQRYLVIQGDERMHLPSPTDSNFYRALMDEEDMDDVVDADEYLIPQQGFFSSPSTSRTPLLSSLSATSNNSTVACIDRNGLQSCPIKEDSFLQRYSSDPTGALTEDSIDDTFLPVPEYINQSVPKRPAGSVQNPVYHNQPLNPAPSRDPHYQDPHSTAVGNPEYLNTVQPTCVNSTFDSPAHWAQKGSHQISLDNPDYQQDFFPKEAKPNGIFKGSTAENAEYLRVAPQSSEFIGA
In short: as §1

[8] = target: T7, EGFR[T790M/C797S/L858R] (Homo sapiens, UniProt P00533, C797S/L858R/T790M); experiment: Inhibition of EGFR[T790M/C797S/L858R] biochemical enzymatic activity (HTRF); details: EGFR[T790M/C797S/L858R], 1 mM ATP, 1 h at room temperature, read-out: IC50 @T790M- C797S - L858R
T7 construct: purchased Carna Bio
In short: as §1

[9] = target: T8, EGFR Exon19Del/T790M (Homo sapiens, UniProt P00533, DEL746-750/T790M); experiment: Inhibition of EGFR Exon19Del/T790M biochemical enzymatic activity (HTRF); details: EGFR Exon19Del/T790M, 1 mM ATP, 1 h at room temperature, read-out: IC50 @Del19-T790M
T8 construct: purchased Carna Bio
T8 sequence (P00533 with tags, fused parts or gaps DEL746-750/T790M limits assumed): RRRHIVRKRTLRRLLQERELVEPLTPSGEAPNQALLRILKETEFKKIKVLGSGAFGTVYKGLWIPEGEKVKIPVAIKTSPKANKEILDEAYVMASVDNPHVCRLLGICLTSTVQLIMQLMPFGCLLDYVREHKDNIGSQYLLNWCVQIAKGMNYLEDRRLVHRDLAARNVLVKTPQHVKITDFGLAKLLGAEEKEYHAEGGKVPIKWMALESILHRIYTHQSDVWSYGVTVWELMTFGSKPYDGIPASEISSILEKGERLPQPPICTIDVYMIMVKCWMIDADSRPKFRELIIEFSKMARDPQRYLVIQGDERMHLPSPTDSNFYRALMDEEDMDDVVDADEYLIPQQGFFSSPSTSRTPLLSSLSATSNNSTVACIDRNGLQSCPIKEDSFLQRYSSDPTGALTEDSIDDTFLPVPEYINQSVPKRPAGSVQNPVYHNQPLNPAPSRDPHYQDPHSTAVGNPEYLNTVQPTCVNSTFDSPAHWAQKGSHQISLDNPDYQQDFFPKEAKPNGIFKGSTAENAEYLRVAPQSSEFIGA
In short: as §1

[10] = tested on: Ba/F3 cells expressing EGFR mutations; experiment: Cell proliferation assay, Ba/F3 cells expressing EGFR mutations (CellTiter-Glo, 72 hours); assay type: cell-based; details: Mus musculus, BaF3, 72 h
In short: (§2)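 Ba/F3 cells (5000/well) and PC-9 cells (500/well, RPMI1640 with 10% FBS) were plated overnight and then dosed with a compound concentration series. Viable cells were read at day 0 (G0) and after treatment (G3). GI50 came from curve fits of G0-corrected proliferation relative to DMSO.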

[11] = target: T9, EGFR L858R/T790M (Homo sapiens, UniProt P00533, L858R/T790M); experiment: Inhibition of EGFR L858R/T790M biochemical enzymatic activity (HTRF); details: EGFR L858R/T790M, 1 mM ATP, 1 h at room temperature, read-out: IC50 @L858R-T790M
T9 construct: purchased Carna Bio
In short: as §1

[12] = tested on: PC-9; experiment: Cell proliferation assay, PC-9 cells (CellTiter-Glo, 72 hours); assay type: cell-based; details: Homo sapiens, PC-9, 72 h, PC9 cells, read-out: GI50 PC9
In short: as §2

[13] = BaF3 cells, EGFR DEL19 - C797S, read-out: GI50 DEL19 - C797S/BaF3
[14] = BaF3 cells, EGFR DEL19 - T790-C797S, read-out: GI50 DEL19 - T790-C797S/BaF3
[15] = BaF3 cells, EGFR L858R - C797S, read-out: GI50 L858R - C797S/BaF3
[16] = BaF3 cells, EGFR L858R - T790-C797S, read-out: GI50 L858R - T790-C797S/BaF3
[17] = BaF3 cells, EGFR L858R - T790M, read-out: GI50 L858R - T790M/BaF3
[18] = BaF3 cells, EGFR L858R, read-out: GI50 L858R/BaF3
[19] = EGFR DEL19 - T790M, read-out: GI50 DEL19 - T790M

IC50 [1] [nM]	IC50 [2] [nM]	IC50 [3] [nM]	GI50 [4] [nM]	IC50 [5] [nM]	IC50 [6] [nM]	IC50 [7] [nM]	IC50 [8] [nM]	IC50 [9] [nM]	GI50 [10, 13] [nM]	GI50 [10, 14] [nM]	GI50 [10, 15] [nM]	GI50 [10, 16] [nM]	GI50 [10, 17] [nM]	GI50 [10, 18] [nM]	GI50 [10, 19] [nM]	IC50 [11] [nM]	GI50 [12] [nM]	SMILES
0.73	7.4	1.4	366	3.3	114	1.4	1	1.3	0.58	0.59	3.2	0.6	0.83	2.7	0.6	1.1	6.1	Cc1cc2cc(n1)-c1cnn(C)c1OCCN1CC3CCC(C3)(C1)n1c(nc3ccc(N4CCN(C)CC4)cc31)NC2=O (stereo not drawn) [Example B9B, 15,21-Dimethyl-5-(4-methylpiperazin-1-yl)-23-oxa-2,9,11,16,20,21,26-heptaazaheptacyclo[24.4.1.1^{1,28}.1^{13,17}.0^{2,10}.0^{3,8}.0^{18,22}]tritriaconta-3,5,7,9,13,15,17(33),18(22),19-nonaen-12-one]
4320	> 5000	> 5000	5380	> 5000	> 5000	401	> 5000	510	626	269	2440	764	2520	3570	441	> 5000	1490	Cc1cc2cc(n1)-c1cc(=O)n(C)cc1OCCC[C@@H](C)Cn1c(nc3ccccc31)NC2=O [Example B11, (12R)-5,12,27-Trimethyl-8-oxa-5,14,21,23,28-pentaazapentacyclo[23.3.1.0^{2,7}.0^{14,22}.0^{15,20}]nonacosa-1(29),2,6,15,17,19,21,25,27-nonaene-4,24-dione]
2.3	44	3.7	1080	11	> 5000	2.6	3	2.5	1.4	0.56	5.6	0.38	1	4	0.79	3.9	12	Cc1cc2cc(n1)-c1cnn(C)c1OCCC[C@@H](C)Cn1c(nc3ccc4c(c31)CCN(CCN(C)C)C4)NC2=O [Example B12, (11R)-18-[2-(dimethylamino)ethyl]-5,11,30-trimethyl-7-oxa-4,5,13,18,24,26,31-heptaazahexacyclo[26.3.1.0^{2,6}.0^{13,25}.0^{14,23}.0^{15,20}]dotriaconta-1(31),2(6),3,14,20,22,24,28(32),29-nonaen-27-one]
3.8	160	5.8	507	37	2540	4.1	4.2	3.2	4.8	1	20	1.2	3.4	18	2.9	7	22	Cc1cc2cc(n1)-c1cnn(C)c1OCCC[C@@H](C)Cn1c(nc3ccc4c(c31)CCN(C1COC1)C4)NC2=O [Example B13, (11R)-5,11,30-trimethyl-18-(oxetan-3-yl)-7-oxa-4,5,13,18,24,26,31-heptaazahexacyclo[26.3.1.0^{2,6}.0^{13,25}.0^{14,23}.0^{15,20}]dotriaconta-1(31),2(6),3,14,20,22,24,28(32),29-nonaen-27-one]
